Data reported in patent US10058619B2, “P97-polynucleotide conjugates” (biOasis Technologies, Inc., priority 2014, dated 2018).

Assays:
[1] = Brain delivery of AF680-labeled test molecules after IV injection, 3D confocal microscopy of brain sections; format: in vivo, Balb/c mice
Procedure: Test molecules were intravenously injected (via tail vein) in Balb/c mice and 1 hour later the animals were sacrificed as follows: Prior to euthanasia, mice were injected (i.v.) with tomato Lectin-Texas Red ([…]) for 10 min to stain the brain vasculature. Blood was cleared by intracardiac perfusion of 10 ml heparinized saline (1 ml/min). Brains were excised and frozen on dry ice and stored at −80° C. Brains were mounted in Tissue Tek and sectioned ([…], 3 sections/brain) with a cryostat at −2° C. Sections (n=3/brain) were mounted on Superfrost Plus microscope slides, fixed in cold Acetone/MeOH (1:1) for 10 min at RT, and then washed with PBS. Glass coverslips were mounted on sections using Prolong Gold antifade reagent with DAPI (Molecular probes, P36931). 3D confocal microscopy was performed (4 random fields per section were captured).
Signals for all the sections were calibrated with respect to the PBS control group in order to observe only minimal (but not completely null) AF680 fluorescent signal in those sections (see FIG. 4A).

[2] = test system: mouse model of middle cerebral artery occlusion (MCAO); assay: Infarct volume analysis (TTC staining) in mouse model of middle cerebral artery occlusion (MCAO); format: in vivo, C57/Bl6 mice; settings: pretreated 3 times with 30 mg/kg IV, 1 hour MCAO, 24 hours post reperfusion
Procedure: The NOX4 gene-targeted p97-siRNA conjugates from Example 1 were tested for their ability to provide neuroprotection in a mouse model of middle cerebral artery occlusion (MCAO) (see, e.g., Chang et al., J Vis Exp. 2761:2011; Althenhöfer et al., Cell. Mol. Life Sci. 69:2327-2343, 2012; and Kleinschnitz et al., PLoS Biol. 8(9):e1000479, 2010).
C57/Bl6 mice were pretreated 3 times (1 hour interval between each injection) with either PBS or 30 mg/kg of siRNA alone or p97-siRNA via intravenous (IV) injection. Animals were subjected to stroke via MCAO about 1 hour following the last injection, as follows. The external and internal carotid arteries (ECA and ICA, respectively) were dissected and isolated and the common carotid artery (CCA) ligated. An […] 8-0 nylon thread coated in dental silicone was inserted into a small hole in the ECA towards the bifurcation of the CCA. […]
When the TTC staining was completed, infarct size was measured by a colorimetric staining method. […]
Absorbance was measured at 485 nm in a spectrophotometer and the values were averaged. Percentage loss in brain TIC staining in the ischemic side of the brain was compared with the contralateral side of the brain of the same animal using the following equation: % loss=100×(1−absorbance of ischemic hemisphere/absorbance of contralateral hemisphere)

siRNA^AF680: negative control: unconjugated NOX4 antisense strand annealed to the AF680-labeled sense strand (antisense AUGUUCACAAAGUCAGGUCTT; sense GACCUGACUUUGUGAACAUTT; sense strand linked to Alexa Fluor 680 via linker, end not given here, further chemistry not given here)
AF680 signal in the vasculature ([1]; 10.0 mg/kg IV via tail vein, 1 h, Balb/c mice, brain sections): no AF680 signal was observed
perinuclear AF680 signal in the brain parenchyma ([1]; 10.0 mg/kg IV via tail vein, 1 h, Balb/c mice, signals calibrated to PBS control): not detected
AF680 (red) staining in brain tissues (immunofluorescence imaging, FIGS. 4A-4D) ([1]; mice, following intravenous administration): no AF680 (red) staining
infarct areas / infarct volume in the brain [2]: large infarct areas
